Tests used:
[1] = Isothermal titration calorimetry (ITC), Cl^− recognition; assay type: binding; settings: for K1 (association constant) / ΔG1: X^− = Cl^−, ITC, DMSO, 298 K
Experimental: (§1) Isothermal titration calorimetry (ITC) studies were conducted on a MICROCAL VP-ITC ultra-sensitive isothermal titration microcalorimeter. The VP-ITC unit, with a precise temperature control set at 25.0±0.1° C., directly measured heat evolved or absorbed in solution as a result of […] of reactant. For control, a reference cell was filled with dimethyl sulfoxide (DMSO). Titrations were run at 25° C.
(§2) Before the experiment, all the samples were degassed at 25° C. for 10 minutes us the THERMOVAC (a vacuum thermostating system). Each of 40 injections of 6 μL of a halide solution was delivered into a solution (1 mM) of reagent LS over 12 seconds by a syringe spinning at 270 rpm, with a 240 second equilibration time between injections. The instrument was controlled by MICROCAL OBSERVER software comprising a 16-bit A/D converter board for data acquisition, and a second interface board for calorimetric control. Heats of dilution were taken into account using data from control experiments, in which DMSO was injected into reagent LS in DMSO solution.
(§3) Using these characteristic ITC patterns, one could determine whether a given test solution contains F^− only or, alternatively, whether the test solution contains is a mixture of F^− with another halide anion.
In addition to the above species, the same experimental procedure was followed with control reagent CR.

[2] = Visual color change and UV/Visible spectroscopy during F^− titration; settings: for visible color change during F^− titration: solvents with up to 15% H2O, orange ≦5 equiv, pink >5 equiv F^−
Description: (§4) Unless otherwise indicated, the following procedure was used for all examples involving titration experiments. Generally, titrant solutions comprising the fluoride receptor reagents (e.g., reagents N1, SR, and LR) were maintained at a concentration of 10 μm. Titrand solutions containing fluoride anion were 30 times more concentrated (e.g., 300 μm) to minimize dilution effects during titration. Unless otherwise indicated, the solvent for all solutions was dimethyl sulfoxide (DMSO).
(§5) Several experiments were conducted to observe the visible color changes that occur when NDI-based receptor reagents N1, SR, and LR were titrated with solutions containing F^− ions. Titrations were carried out using F^− in a number of solvents, including aqueous dimethyl sulfoxide (DMSO), dimethylformamide (DMF), dimethylacetamide (DMAc), acetonitrile, acetone, and tetrahydrofuran, with each solution containing up to 15% of H2O. Otherwise, the titrations followed the standard titration procedure outlined above.
(§6) As indicated above, UV/Visible light (UV/Vis) spectra were recorded on a PerkinElmer Lambda-25 UV/Vis spectrophotometer. For each experiment, receptor N1, SR, and CR concentrations were maintained at 10 μM. Titration of the F^− ion was conducted using the standard titration procedure outlined above.

[3] = Visual color change and UV/Visible spectroscopy during titration with other anions
Description: as §4, §5, §6
Similarly, FIG. 5, panel (c) is a representation of the data obtained when receptor reagent N1 was titrated with various other […], including Cl^−, Br^−, I^−, NO3^−, acetate anion (AcO^−), and H2PO4^−.

[4] = Isothermal titration calorimetry (ITC), F^− recognition; assay type: binding; settings: for K1 (association constant) / ΔG1 / K2 (association constant, second binding process) / ΔG2: X^− = F^−, DMSO, 298 K
Experimental: as §1, §2
From these experiments, it has been confirmed that a 1:[…] (reagent LS:F^− anion) type of stoichiometry occurs during F^− titration. Initially, π-anion-π interaction takes place, at concentrations up to one molar equivalent of F^− ion. At concentrations greater than one equivalent of F^−, the NH proton becomes directly involved in a second binding process through hydrogen bonding, a conclusion which is supported by the ^1H NMR experiments described above. The association constants for these two processes have been determined as follows: K1=4.11 10^4 M^−1 and K2=2.69 10^4 M^−1. […]

[5] = Fluorescence spectroscopy during F^− titration; settings: for selectivity for F^− over other halide ions: color and emission spectra, Cl^−, Br^−, I^− up to 30 molar equivalents, DMSO
Description: as §4
Fluorescence spectroscopy was introduced to determine the sensitivity of NDI-based F^− ion sensors at very low concentrations. Fluorescence spectra were collected on a HORIBA JOBIN YVON FLUOROMAX-4 spectrofluorometer.

[6] = Cyclic voltammetry; assay type: physicochemical; settings: 1 mM in 0.1 M TBAPF6/DMF, Ag/AgCl reference, 100 mV/s, room temperature
Experimental: Cyclic voltammetry (CV) was conducted on a PRINCETON APPLIED RESEARCH (PAR) VERSASTAT-3-200 potentiostat/galvanostat instrument using a standard electrochemical cell, consisting of a Pt-disk working electrode, Pt-wire counter electrode, and Ag/AgCl (3 N aq. NaCl) reference electrode. CV was recorded at 1 mM of reagent N1 in 0.1 M TBAPF6/DMF supporting electrolyte solution at room temperature at 100 mV/s scan rate (FIG. 11).

[7] = Fluoride anion sensing in toothpastes (UV/Vis); settings: 10 μM receptor, wet DMSO
Experimental: For the detection of F^− ion in toothpastes, small samples (1 gram) of each of two toothpastes (COLGATE anticavity fluoride toothpaste and ORAJEL toddler fluoride-free toothpaste) were extracted separately in 2 mL of aqueous DMSO. The COLGATE toothpaste contained 0.24% (w/v) NaF. Each resulting suspension was filtered to obtain colorless clear solution, which were separately added to 10 μM SR solutions.
The black trace represents SR without toothpaste; the light trace, SR with anticavity adult toothpaste containing 0.24% NaF; and the medium trace, SR with F^− free toddler toothpaste.

[8] = Isothermal titration calorimetry (ITC), I^− recognition; assay type: binding; settings: solution with DMSO
Experimental: as §1, §2, §3

[9] = Isothermal titration calorimetry (ITC), Br^− recognition; assay type: binding; settings: solution with DMSO
Experimental: as §1, §2, §3

Structure (SMILES) | K1 (association constant) [1] [M⁻¹] | ΔG1 [1] [kcal/M] | K1 (association constant) [4] [M⁻¹] | ΔG1 [4] [kcal/M] | visible color change during F^− titration [2] | selectivity for F^− over other halide ions [5] | K2 (association constant, second binding process) [4] [M⁻¹] | ΔG2 [4] [kcal/M] | other results
O=C(Nc1cccc(NC(=O)c2cccc(C(=O)Nc3cccc(NC(=O)c4ccncc4)c3)c2)c1)c1ccncc1 [CR, reference compound] | 100 | -2.71 | 259 | -3.28 | – | – | – | – | UV/Vis spectroscopic / colorimetric response to F^− titration ([2]; receptor 10 μM, DMSO): virtually no colorimetric response; visible color change in response to anions ([3]; any anion): did not change color in response to any anion
O=C1c2ccc3c4c(ccc(c24)C(=O)N1c1ccncc1)C(=O)N(c1ccncc1)C3=O [N1] | 53 | -2.35 | 8470 | -5.36 | immediately changed color in a distinct two-step pattern | – | – | – | increase of the 465 nm emission peak ([5]; receptor 10 μM in DMSO, 30 equiv. of F^−): 5.5 fold; E1 ½, one-electron reduction to radical anion [6]: −342 mV; E2 ½, reduction to dianion [6]: −804 mV; optical response to other anions ([3]; Cl^−, Br^−, I^−, NO3^−, AcO^−, H2PO4^−, UV/Vis): did not show any optical response
O=C(Nc1cccc(N2C(=O)c3ccc4c5c(ccc(c35)C2=O)C(=O)N(c2ccncc2)C4=O)c1)c1cccc(C(=O)Nc2cccc(N3C(=O)c4ccc5c6c(ccc(c46)C3=O)C(=O)N(c3ccncc3)C5=O)c2)n1 [SR] | 1730 | -4.41 | 9.03e+08 | -12.20 | immediately changed color in a distinct two-step pattern | excellent selectivity | 442000 | -7.70 | amplification of a new peak at 465 nm ([5]; receptor 1 nM in DMSO, F^− 30 nM, 381 nm excitation): 20 fold; color change with F^− in the presence of Cl^− ([2]; titrated with F^− in the presence of 30 molar equivalents of Cl^−): showed the characteristic two-step color change associated with F^− even in the presence of Cl^−; optical response to Cl^− alone ([3]; Cl^−, 30 molar equivalents): no optical response; response to F^− containing toothpaste solution (COLGATE, 0.24% NaF) [7]: turned light orange; response to F^−-free ORAJEL toothpaste [7]: did not change the spectrum of the receptor
O=C(Nc1cccc(NC(=O)c2cccc(C(=O)Nc3cccc(NC(=O)c4ccc(N5C(=O)c6ccc7c8c(ccc(c68)C5=O)C(=O)N(c5ccncc5)C7=O)cc4)c3)c2)c1)c1ccc(N2C(=O)c3ccc4c5c(ccc(c35)C2=O)C(=O)N(c2ccncc2)C4=O)cc1 [LR] | 319 | -3.42 | 41100 | -6.29 | immediately changed color in a distinct two-step pattern | excellent selectivity | 26900 | -6.04 | association constant Ka [8]: 105 M⁻¹; association constant Ka ([1]; Cl^−, solution with DMSO): 319 M⁻¹; association constant Ka [9]: 145 M⁻¹; F^− binding in presence of excess Cl^− ion ([4]; excess of Cl^−): binds F^− selectively

From patent US8541240B2, “Colorimetric and fluorimetric fluoride sensing” (Florida State University Research Foundation, Inc., priority 2010, dated 2013)
